Results as given in PubChem BioAssay AID248 (DTP/NCI, 2004).
Several values for one entry are separate records, joined by “and”; a condition that tells them apart may be missing. Identical values can stand only once. Toxic doses and inconclusive results are not listed. No stated cut-off is given here; in the data, active means T/C of 150% or more; inactive means T/C below 125%. Square brackets hold non-standard residues; d marks the D form. Peptide text beside a SMILES is read from it. * marks the point of attachment. ξ: configuration not given here. Cbz = O=C(OCc1ccccc1)*; ξI = CCC(C)C(N)C(=O)O

Test system: L1210 leukemia ip in BDF1 mice, survival T/C
Test: NCI In Vivo Anticancer Drug Screen. Data for tumor model L1210 Leukemia (intraperitoneal) in B6D2F1 (BDF1) mice
Details: endpoint: mean survival time, higher = longer survival
Method in brief: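 Transplanted-tumor mice were given test agent; controls received vehicle only. Survival readings from the two groups were divided (treated over control).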

[1] = dose: 100.0 mg/kg/injection, schedule: Q01DX001 (ip), vehicle: carboxymethylcellulose (CMC)
[2] = dose: 200.0 mg/kg/injection, schedule: Q01DX001 (ip), vehicle: carboxymethylcellulose (CMC)
[3] = dose: 400.0 mg/kg/injection, schedule: Q01DX001 (ip), vehicle: carboxymethylcellulose (CMC)
[4] = dose: 100.0 mg/kg/injection, schedule: Q04DX002 (ip), vehicle: Klucel (hydroxypropylcellulose) (HPC)
[5] = dose: 200.0 mg/kg/injection, schedule: Q04DX002 (ip), vehicle: Klucel (hydroxypropylcellulose) (HPC)
[6] = dose: 400.0 mg/kg/injection, schedule: Q04DX002 (ip), vehicle: Klucel (hydroxypropylcellulose) (HPC)
[7] = dose: 100.0 mg/kg/injection, schedule: Q04DX003 (ip), vehicle: Klucel (hydroxypropylcellulose) (HPC)
[8] = dose: 200.0 mg/kg/injection, schedule: Q04DX003 (ip), vehicle: Klucel (hydroxypropylcellulose) (HPC)
[9] = dose: 400.0 mg/kg/injection, schedule: Q04DX003 (ip), vehicle: Klucel (hydroxypropylcellulose) (HPC)
[10] = dose: 100.0 mg/kg/injection, schedule: Q04DX003 (ip), vehicle: carboxymethylcellulose (CMC)
[11] = dose: 200.0 mg/kg/injection, schedule: Q04DX003 (ip), vehicle: carboxymethylcellulose (CMC)
[12] = dose: 400.0 mg/kg/injection, schedule: Q04DX003 (ip), vehicle: carboxymethylcellulose (CMC)
[13] = dose: 100.0 mg/kg/injection, schedule: Q01DX001 (ip), vehicle: saline
[14] = dose: 200.0 mg/kg/injection, schedule: Q01DX001 (ip), vehicle: saline
[15] = dose: 400.0 mg/kg/injection, schedule: Q01DX001 (ip), vehicle: saline
[16] = dose: 100.0 mg/kg/injection, schedule: Q01DX001 (ip), vehicle: other
[17] = dose: 200.0 mg/kg/injection, schedule: Q01DX001 (ip), vehicle: other
[18] = dose: 100.0 mg/kg/injection, schedule: Q01DX009 (ip), vehicle: Klucel (hydroxypropylcellulose) (HPC)
[19] = dose: 200.0 mg/kg/injection, schedule: Q01DX009 (ip), vehicle: Klucel (hydroxypropylcellulose) (HPC)
[20] = dose: 400.0 mg/kg/injection, schedule: Q01DX009 (ip), vehicle: Klucel (hydroxypropylcellulose) (HPC)

Measured: T/C

O=Cc1ccc(O)c(O)c1
inactive: dose: 100.0 mg/kg/injection, schedule: Q01DX Z (ip), vehicle: other 101 % of control and 102 % of control | dose: 150.0 mg/kg/injection, schedule: Q01DX Z (ip), vehicle: other 101 % of control and 107 % of control | dose: 160.0 mg/kg/injection, schedule: Q01DX Z (ip), vehicle: carboxymethylcellulose (CMC) 115 % of control | dose: 160.0 mg/kg/injection, schedule: Q01DX Z (ip), vehicle: other 122 % of control | dose: 225.0 mg/kg/injection, schedule: Q01DX Z (ip), vehicle: other 98 % of control and 120 % of control | dose: 240.0 mg/kg/injection, schedule: Q01DX Z (ip), vehicle: carboxymethylcellulose (CMC) 122 % of control | dose: 340.0 mg/kg/injection, schedule: Q01DX Z (ip), vehicle: other 101 % of control and 107 % of control | dose: 510.0 mg/kg/injection, schedule: Q01DX Z (ip), vehicle: other 113 % of control | dose: 540.0 mg/kg/injection, schedule: Q01DX Z (ip), vehicle: other 93 % of control | dose: 750.0 mg/kg/injection, schedule: Q01DX Z (ip), vehicle: other 113 % of control

CN(C)Cc1ccc(Cl)cc1C(O)(c1ccccc1)c1ccccc1
inactive: dose: 50.0 mg/kg/injection, schedule: Q01DX001 (ip), vehicle: carboxymethylcellulose (CMC) 101 % of control | [1] 104 % of control | [2] 93 % of control | [3] 93 % of control

O=C(CBr)c1cccc2c1ccc1ccccc12
inactive: dose: 1.56 mg/kg/injection, schedule: Q01DX009 (ip), vehicle: other 100 % of control | dose: 3.13 mg/kg/injection, schedule: Q01DX009 (ip), vehicle: other 95 % of control | dose: 6.25 mg/kg/injection, schedule: Q01DX009 (ip), vehicle: other 95 % of control and 98 % of control | dose: 12.5 mg/kg/injection, schedule: Q01DX005 (ip), vehicle: other 101 % of control | dose: 12.5 mg/kg/injection, schedule: Q04DX002 (ip), vehicle: other 102 % of control | dose: 25.0 mg/kg/injection, schedule: Q01DX005 (ip), vehicle: other 104 % of control | dose: 25.0 mg/kg/injection, schedule: Q04DX002 (ip), vehicle: other 91 % of control | dose: 50.0 mg/kg/injection, schedule: Q04DX002 (ip), vehicle: other 102 % of control

O=C(O)C1C2OC(C(Cl)C2Cl)C1C(=O)O (stereo not given)
inactive: [4] 98 % of control | [5] 103 % of control | [6] 95 % of control

Cc1ccc(C2(O)CCN(CCCC(=O)c3ccc(F)cc3)CC2)cc1
inactive: dose: 3.12 mg/kg/injection, schedule: Q01DX009 (ip), vehicle: Klucel (hydroxypropylcellulose) (HPC) 101 % of control | dose: 6.25 mg/kg/injection, schedule: Q01DX009 (ip), vehicle: Klucel (hydroxypropylcellulose) (HPC) 104 % of control | dose: 12.5 mg/kg/injection, schedule: Q01DX009 (ip), vehicle: Klucel (hydroxypropylcellulose) (HPC) 101 % of control | dose: 25.0 mg/kg/injection, schedule: Q01DX009 (ip), vehicle: Klucel (hydroxypropylcellulose) (HPC) 113 % of control | dose: 50.0 mg/kg/injection, schedule: Q01DX009 (ip), vehicle: Klucel (hydroxypropylcellulose) (HPC) 104 % of control

CCCCOC(=O)CCSCCC(=O)OCCCC
inactive: dose: 100.0 mg/kg/injection, schedule: Q01DX009 (ip), vehicle: saline with Tween-80 102 % of control | dose: 200.0 mg/kg/injection, schedule: Q01DX009 (ip), vehicle: saline with Tween-80 94 % of control | dose: 400.0 mg/kg/injection, schedule: Q01DX009 (ip), vehicle: saline with Tween-80 102 % of control

CC(C)C1CCC(C)C(OB(OC2CC(C(C)C)CCC2C)OC2CC(C(C)C)CCC2C)C1 (stereo not given)
inactive: [7] 88 % of control | [8] 99 % of control | [9] 88 % of control

Cc1ccc2[nH]c(=S)n(-c3ccc(Cl)cc3)c(=O)c2c1
inactive: [10] 97 % of control | [11] 88 % of control | [12] 93 % of control

CCN(CC)CCOC(=O)C1C2CC3OC(=O)C1C3C2 (stereo not given)
inactive: dose: 100.0 mg/kg/injection, schedule: Q04DX003 (ip), vehicle: saline 108 % of control | dose: 200.0 mg/kg/injection, schedule: Q04DX003 (ip), vehicle: saline 95 % of control | dose: 400.0 mg/kg/injection, schedule: Q04DX003 (ip), vehicle: saline 92 % of control

CCOC(=O)NC(=S)NN
inactive: dose: 100.0 mg/kg/injection, schedule: Q01DX009 (ip), vehicle: saline 105 % of control | dose: 200.0 mg/kg/injection, schedule: Q01DX009 (ip), vehicle: saline 110 % of control

OC1CCC(O)C2CCCCC12 (stereo not given)
inactive: [13] 101 % of control | [7] 112 % of control | [14] 95 % of control | [8] 91 % of control | [15] 95 % of control | [9] 104 % of control

c1ccn2nnnc2c1
inactive: [16] 97 % of control | [17] 94 % of control

CONP(=O)(Oc1ccccc1)Oc1ccccc1
inactive: [1] 95 % of control | [2] 95 % of control | [3] 97 % of control

Cc1ccc(NC(=O)c2c(Br)c(Br)c(Br)c(Br)c2C(=O)O)cc1Cl
inactive: [18] 100 % of control | [4] 96 % of control | [19] 96 % of control | [5] 110 % of control | [6] 102 % of control

O=C(O)CCCCCN1C(=O)C2OC3C(=O)N(CCCCCC(=O)O)C(=O)C3C2C1=O (stereo not given)
inactive: [10] 95 % of control | [11] 95 % of control | [12] 97 % of control

CC1C(N2CCOCC2)CS1(=O)=O (stereo not given)
inactive: [18] 92 % of control | [7] 93 % of control | [19] 94 % of control | [8] 98 % of control | [20] 103 % of control | [9] 98 % of control

Oc1c(Cl)cc(Cl)cc1CNCc1ccccc1
inactive: [16] 93 % of control | dose: 100.0 mg/kg/injection, schedule: Q04DX003 (ip), vehicle: other 110 % of control | [17] 94 % of control | dose: 200.0 mg/kg/injection, schedule: Q04DX003 (ip), vehicle: other 102 % of control | dose: 400.0 mg/kg/injection, schedule: Q01DX001 (ip), vehicle: other 90 % of control | dose: 400.0 mg/kg/injection, schedule: Q04DX003 (ip), vehicle: other 110 % of control

CCC(C)C(NC(=O)CNC(=O)OCc1ccccc1)C(N)=O (stereo not drawn) (Cbz-Gly-[ξI]-NH2)
inactive: dose: 100.0 mg/kg/injection, schedule: Q04DX003 (ip), vehicle: saline with Tween-80 103 % of control | dose: 200.0 mg/kg/injection, schedule: Q04DX003 (ip), vehicle: saline with Tween-80 97 % of control | dose: 400.0 mg/kg/injection, schedule: Q04DX003 (ip), vehicle: saline with Tween-80 95 % of control

NS(=O)(=O)c1ccc(N=Cc2ccc3c(c2)OCO3)cc1
inactive: [18] 94 % of control | [19] 92 % of control | [20] 97 % of control

Cc1ncc(O)c(CO)c1O
inactive: dose: 50.0 mg/kg/injection, schedule: Q01DX001 (ip), vehicle: saline 108 % of control | [13] 96 % of control | [14] 96 % of control | [15] 96 % of control
